According to ChEMBL document CHEMBL4507293 (2021):
Calls of active or inactive are those of the source. The calls are words filed in the database; no cut-off is given here.

What was measured:
[1] = biological target: T1, cAMP and cAMP-inhibited cGMP 3',5'-cyclic phosphodiesterase 10A (Homo sapiens, UniProt Q9Y233); experiment: Biochemical assay (PDE10A)
[2] = biological target: 3',5'-cyclic-AMP phosphodiesterase 4A (Homo sapiens, UniProt P27815); experiment: Biochemical assay (PDE4A)
[3] = biological target: 5'-AMP-activated protein kinase catalytic subunit alpha-1 (Homo sapiens) (UniProt Q13131); conditions: Compound concentration 100.0 nM
[4] = biological target: Calcium/calmodulin-dependent protein kinase type II subunit delta (Homo sapiens) (UniProt Q13557); conditions: Compound concentration 100.0 nM
[5] = biological target: Citron Rho-interacting kinase (Homo sapiens) (UniProt O14578); conditions: Compound concentration 100.0 nM
[6] = system: Epidermal growth factor receptor (Homo sapiens), P00533 [UNDEFINED MUTATION]; conditions: Compound concentration 100.0 nM
[7] = biological target: Receptor-type tyrosine-protein kinase FLT3 (Homo sapiens) (UniProt P36888); conditions: Compound concentration 100.0 nM
[8] = biological target: Mitogen-activated protein kinase kinase kinase kinase 3 (Homo sapiens) (UniProt Q8IVH8); conditions: Compound concentration 100.0 nM
[9] = biological target: Mitogen-activated protein kinase kinase kinase kinase 5 (Homo sapiens) (UniProt Q9Y4K4); conditions: Compound concentration 100.0 nM
[10] = biological target: Serine/threonine-protein kinase 26 (Homo sapiens) (UniProt Q9P289); conditions: Compound concentration 100.0 nM
[11] = biological target: Serine/threonine-protein kinase Nek1 (Homo sapiens) (UniProt Q96PY6); conditions: Compound concentration 100.0 nM
[12] = biological target: Serine/threonine-protein kinase Nek10 (Homo sapiens) (UniProt Q6ZWH5); conditions: Compound concentration 100.0 nM
[13] = biological target: Serine/threonine-protein kinase Nek11 (Homo sapiens) (UniProt Q8NG66); conditions: Compound concentration 100.0 nM
[14] = biological target: Serine/threonine-protein kinase Nek4 (Homo sapiens) (UniProt P51957); conditions: Compound concentration 100.0 nM
[15] = biological target: Cyclin-dependent kinase 18 (Homo sapiens) (UniProt Q07002); conditions: Compound concentration 100.0 nM
[16] = biological target: Phosphatidylinositol 4-phosphate 3-kinase C2 domain-containing subunit beta (Homo sapiens) (UniProt O00750); conditions: Compound concentration 100.0 nM
[17] = system: Phosphatidylinositol 4,5-bisphosphate 3-kinase catalytic subunit alpha isoform (Homo sapiens), P42336 [H1047Y]; conditions: Compound concentration 100.0 nM
[18] = system: Phosphatidylinositol 4,5-bisphosphate 3-kinase catalytic subunit alpha isoform (Homo sapiens), P42336 [M1043I]; conditions: Compound concentration 100.0 nM
[19] = biological target: Serine/threonine-protein kinase PLK4 (Homo sapiens) (UniProt O00444); conditions: Compound concentration 100.0 nM
[20] = biological target: Protein kinase C epsilon type (Homo sapiens) (UniProt Q02156); conditions: Compound concentration 100.0 nM
[21] = biological target: cAMP-dependent protein kinase catalytic subunit PRKX (Homo sapiens) (UniProt P51817); conditions: Compound concentration 100.0 nM
[22] = biological target: Rho-associated protein kinase 1 (Homo sapiens) (UniProt Q13464); conditions: Compound concentration 100.0 nM
[23] = biological target: SNF-related serine/threonine-protein kinase (Homo sapiens) (UniProt Q9NRH2); conditions: Compound concentration 100.0 nM
[24] = biological target: SRSF protein kinase 1 (Homo sapiens) (UniProt Q96SB4); conditions: Compound concentration 100.0 nM
[25] = biological target: Serine/threonine-protein kinase VRK2 (Homo sapiens) (UniProt Q86Y07); conditions: Compound concentration 100.0 nM
[26] = biological target: Serine/threonine-protein kinase WNK4 (Homo sapiens) (UniProt Q96J92); conditions: Compound concentration 100.0 nM
[27] = biological target: Beta-3 adrenergic receptor (Homo sapiens) (UniProt P13945); conditions: Compound concentration 10.0 uM
[28] = biological target: Neuropeptide Y receptor type 2 (Homo sapiens) (UniProt P49146); experiment: Inhibition of Neuropeptide Y Y2 at 10 µM in the Eurofins-Panlabs radioligand binding assay (Eurofins_assay_257110); conditions: Compound concentration 10.0 uM
[29] = biological target: Melanocortin receptor 3 (Homo sapiens) (UniProt P41968); experiment: Inhibition of Melanocortin MC3 at 10 µM in the Eurofins-Panlabs radioligand binding assay (Eurofins_assay_251300); set-up: ligand concentration 0.035 nM; conditions: Compound concentration 10.0 uM
[30] = biological target: Melanocortin receptor 5 (Homo sapiens) (UniProt P33032); experiment: Inhibition of Melanocortin MC5 at 10 µM in the Eurofins-Panlabs radioligand binding assay (Eurofins_assay_251400); set-up: ligand concentration 0.035 nM; conditions: Compound concentration 10.0 uM
[31] = biological target: 5-hydroxytryptamine receptor 3A (Homo sapiens) (UniProt P46098); experiment: Inhibition of Serotonin (5-Hydroxytryptamine) 5-HT3 at 10 µM in the Eurofins-Panlabs radioligand binding assay (Eurofins_assay_271910); set-up: ligand concentration 0.69 nM; conditions: Compound concentration 10.0 uM
[32] = biological target: Cathepsin G (Homo sapiens) (UniProt P08311); experiment: Inhibition of Peptidase, CTSG (Cathepsin G) at 10 µM in the Eurofins-Panlabs enzyme assay (Eurofins_assay_112510); set-up: substrate with concentration; conditions: Compound concentration 10.0 uM
[33] = biological target: High affinity choline transporter 1 (Homo sapiens) (UniProt Q9GZV3); experiment: Transporter, Choline Eurofins-Panlabs radioligand binding assay; set-up: ligand concentration 0.75 nM; conditions: Rattus norvegicus; Compound concentration 10.0 uM
[34] = biological target: T1, cAMP and cAMP-inhibited cGMP 3',5'-cyclic phosphodiesterase 10A; experiment: Cell assay
[35] = biological target: Rod cGMP-specific 3',5'-cyclic phosphodiesterase subunit alpha (Homo sapiens, UniProt P16499); experiment: Biochemical assay (PDE6A)
[36] = biological target: D(1A) dopamine receptor (Homo sapiens) (UniProt P21728); conditions: Compound concentration 10.0 uM
[37] = biological target: D(2) dopamine receptor (Homo sapiens) (UniProt P14416); conditions: Compound concentration 10.0 uM
[38] = biological target: Glutamate NMDA receptor (Rattus norvegicus) (UniProt P35439+Q00959+Q00960+Q00961+Q62645+Q8VHN2+Q9R1M7); conditions: Compound concentration 10.0 uM
[39] = biological target: Muscarinic acetylcholine receptor M3 (Homo sapiens) (UniProt P20309); conditions: Compound concentration 10.0 uM
[40] = biological target: Kappa-type opioid receptor (Homo sapiens) (UniProt P41145); conditions: Compound concentration 10.0 uM
[41] = biological target: Mu-type opioid receptor (Homo sapiens) (UniProt P35372); conditions: Compound concentration 10.0 uM
[42] = biological target: Sodium-dependent dopamine transporter (Homo sapiens) (UniProt Q01959); conditions: Compound concentration 10.0 uM
[43] = biological target: Cannabinoid receptor 2 (Homo sapiens) (UniProt P34972); conditions: Compound concentration 10.0 uM

Serine/threonine-protein kinase PLK4 (Homo sapiens), sequence (O00444 whole entry): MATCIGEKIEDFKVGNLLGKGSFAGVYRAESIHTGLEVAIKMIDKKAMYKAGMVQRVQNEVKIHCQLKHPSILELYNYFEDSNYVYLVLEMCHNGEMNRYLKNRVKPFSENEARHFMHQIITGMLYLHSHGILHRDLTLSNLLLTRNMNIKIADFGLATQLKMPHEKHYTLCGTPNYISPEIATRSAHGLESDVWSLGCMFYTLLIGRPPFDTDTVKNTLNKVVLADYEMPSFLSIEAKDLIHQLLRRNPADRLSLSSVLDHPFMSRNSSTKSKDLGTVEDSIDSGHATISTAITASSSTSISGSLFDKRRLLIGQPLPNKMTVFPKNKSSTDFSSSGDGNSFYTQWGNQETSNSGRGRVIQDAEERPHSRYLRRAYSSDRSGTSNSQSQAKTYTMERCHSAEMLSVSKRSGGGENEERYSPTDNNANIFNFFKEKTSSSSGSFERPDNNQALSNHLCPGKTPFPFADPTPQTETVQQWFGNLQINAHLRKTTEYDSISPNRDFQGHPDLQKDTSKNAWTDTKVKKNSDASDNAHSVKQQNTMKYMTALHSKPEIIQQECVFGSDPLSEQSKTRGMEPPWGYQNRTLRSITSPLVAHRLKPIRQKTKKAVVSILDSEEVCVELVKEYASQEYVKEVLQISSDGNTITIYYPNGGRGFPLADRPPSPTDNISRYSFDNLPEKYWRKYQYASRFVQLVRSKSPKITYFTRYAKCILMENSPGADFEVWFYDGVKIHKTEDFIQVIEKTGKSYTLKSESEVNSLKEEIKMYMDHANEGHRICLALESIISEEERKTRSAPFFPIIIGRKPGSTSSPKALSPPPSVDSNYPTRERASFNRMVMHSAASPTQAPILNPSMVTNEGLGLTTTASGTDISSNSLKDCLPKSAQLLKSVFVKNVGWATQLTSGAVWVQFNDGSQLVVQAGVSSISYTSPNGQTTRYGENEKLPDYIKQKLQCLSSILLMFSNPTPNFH
3',5'-cyclic-AMP phosphodiesterase 4A, sequence (P27815 whole entry): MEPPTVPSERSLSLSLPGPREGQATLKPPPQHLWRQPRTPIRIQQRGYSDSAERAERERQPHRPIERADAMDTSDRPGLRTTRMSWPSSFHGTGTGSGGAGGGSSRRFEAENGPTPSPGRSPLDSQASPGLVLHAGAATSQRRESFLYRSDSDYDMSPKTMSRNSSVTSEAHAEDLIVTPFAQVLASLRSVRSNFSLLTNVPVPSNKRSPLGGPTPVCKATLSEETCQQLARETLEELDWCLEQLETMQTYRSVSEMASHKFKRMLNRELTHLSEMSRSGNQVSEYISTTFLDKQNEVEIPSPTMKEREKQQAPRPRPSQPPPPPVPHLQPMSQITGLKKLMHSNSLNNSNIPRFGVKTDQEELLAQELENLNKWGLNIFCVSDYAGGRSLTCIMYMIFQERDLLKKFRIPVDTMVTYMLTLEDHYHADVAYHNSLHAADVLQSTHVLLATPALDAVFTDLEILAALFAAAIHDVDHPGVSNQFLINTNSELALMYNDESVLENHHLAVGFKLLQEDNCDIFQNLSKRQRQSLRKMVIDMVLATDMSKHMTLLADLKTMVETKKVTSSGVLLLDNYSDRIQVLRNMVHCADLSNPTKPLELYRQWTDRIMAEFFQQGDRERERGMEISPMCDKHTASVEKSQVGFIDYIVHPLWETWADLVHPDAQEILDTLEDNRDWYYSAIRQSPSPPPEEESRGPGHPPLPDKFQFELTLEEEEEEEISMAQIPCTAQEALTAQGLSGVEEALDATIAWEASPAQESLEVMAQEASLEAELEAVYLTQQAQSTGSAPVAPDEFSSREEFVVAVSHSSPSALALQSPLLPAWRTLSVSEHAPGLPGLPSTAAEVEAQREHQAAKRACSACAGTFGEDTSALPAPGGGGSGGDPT
Phosphatidylinositol 4,5-bisphosphate 3-kinase catalytic subunit alpha isoform (Homo sapiens), P42336 [H1047Y], sequence (P42336 whole entry H1047Y, canonical isoform): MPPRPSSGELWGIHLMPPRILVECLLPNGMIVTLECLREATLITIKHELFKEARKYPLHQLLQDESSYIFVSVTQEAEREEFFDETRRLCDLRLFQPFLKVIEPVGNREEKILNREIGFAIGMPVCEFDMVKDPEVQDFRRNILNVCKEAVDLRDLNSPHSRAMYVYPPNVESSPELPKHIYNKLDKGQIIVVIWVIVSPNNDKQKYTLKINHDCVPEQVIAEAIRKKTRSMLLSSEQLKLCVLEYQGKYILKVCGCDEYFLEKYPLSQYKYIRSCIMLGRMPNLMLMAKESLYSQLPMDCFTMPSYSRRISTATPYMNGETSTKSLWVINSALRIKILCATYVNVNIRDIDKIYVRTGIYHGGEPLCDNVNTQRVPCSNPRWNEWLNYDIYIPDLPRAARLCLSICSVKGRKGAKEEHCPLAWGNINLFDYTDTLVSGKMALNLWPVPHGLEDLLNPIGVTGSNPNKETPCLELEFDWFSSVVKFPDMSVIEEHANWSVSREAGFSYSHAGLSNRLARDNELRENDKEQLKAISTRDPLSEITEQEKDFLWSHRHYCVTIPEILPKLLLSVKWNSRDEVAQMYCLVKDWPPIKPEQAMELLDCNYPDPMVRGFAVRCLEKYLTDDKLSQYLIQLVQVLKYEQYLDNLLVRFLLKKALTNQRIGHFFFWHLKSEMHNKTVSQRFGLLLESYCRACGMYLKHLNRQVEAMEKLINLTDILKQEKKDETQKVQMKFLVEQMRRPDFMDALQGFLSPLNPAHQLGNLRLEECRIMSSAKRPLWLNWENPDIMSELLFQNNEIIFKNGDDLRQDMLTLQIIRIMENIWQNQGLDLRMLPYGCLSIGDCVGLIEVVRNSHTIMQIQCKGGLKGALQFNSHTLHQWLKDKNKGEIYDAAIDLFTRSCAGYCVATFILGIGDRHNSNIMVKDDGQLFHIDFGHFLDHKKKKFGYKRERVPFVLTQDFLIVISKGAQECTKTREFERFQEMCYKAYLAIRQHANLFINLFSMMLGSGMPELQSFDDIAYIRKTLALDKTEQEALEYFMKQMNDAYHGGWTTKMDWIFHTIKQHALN
Phosphatidylinositol 4,5-bisphosphate 3-kinase catalytic subunit alpha isoform (Homo sapiens), P42336 [M1043I], sequence (P42336 whole entry M1043I, canonical isoform): as the sequence (P42336 whole entry H1047Y, canonical isoform) above, with M1043I, Y1047H counted along it
Beta-3 adrenergic receptor (Homo sapiens), sequence (P13945 whole entry, looked up): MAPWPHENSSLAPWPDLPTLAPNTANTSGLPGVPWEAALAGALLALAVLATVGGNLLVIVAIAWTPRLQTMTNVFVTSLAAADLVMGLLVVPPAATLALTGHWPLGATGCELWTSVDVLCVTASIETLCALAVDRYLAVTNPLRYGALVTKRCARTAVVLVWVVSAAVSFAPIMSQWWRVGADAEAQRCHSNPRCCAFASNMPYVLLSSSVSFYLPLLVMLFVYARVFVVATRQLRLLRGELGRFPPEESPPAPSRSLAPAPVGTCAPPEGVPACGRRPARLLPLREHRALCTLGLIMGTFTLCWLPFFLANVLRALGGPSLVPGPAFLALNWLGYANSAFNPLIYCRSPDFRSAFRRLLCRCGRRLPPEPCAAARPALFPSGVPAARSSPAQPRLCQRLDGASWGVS
SNF-related serine/threonine-protein kinase (Homo sapiens), sequence (Q9NRH2 whole entry): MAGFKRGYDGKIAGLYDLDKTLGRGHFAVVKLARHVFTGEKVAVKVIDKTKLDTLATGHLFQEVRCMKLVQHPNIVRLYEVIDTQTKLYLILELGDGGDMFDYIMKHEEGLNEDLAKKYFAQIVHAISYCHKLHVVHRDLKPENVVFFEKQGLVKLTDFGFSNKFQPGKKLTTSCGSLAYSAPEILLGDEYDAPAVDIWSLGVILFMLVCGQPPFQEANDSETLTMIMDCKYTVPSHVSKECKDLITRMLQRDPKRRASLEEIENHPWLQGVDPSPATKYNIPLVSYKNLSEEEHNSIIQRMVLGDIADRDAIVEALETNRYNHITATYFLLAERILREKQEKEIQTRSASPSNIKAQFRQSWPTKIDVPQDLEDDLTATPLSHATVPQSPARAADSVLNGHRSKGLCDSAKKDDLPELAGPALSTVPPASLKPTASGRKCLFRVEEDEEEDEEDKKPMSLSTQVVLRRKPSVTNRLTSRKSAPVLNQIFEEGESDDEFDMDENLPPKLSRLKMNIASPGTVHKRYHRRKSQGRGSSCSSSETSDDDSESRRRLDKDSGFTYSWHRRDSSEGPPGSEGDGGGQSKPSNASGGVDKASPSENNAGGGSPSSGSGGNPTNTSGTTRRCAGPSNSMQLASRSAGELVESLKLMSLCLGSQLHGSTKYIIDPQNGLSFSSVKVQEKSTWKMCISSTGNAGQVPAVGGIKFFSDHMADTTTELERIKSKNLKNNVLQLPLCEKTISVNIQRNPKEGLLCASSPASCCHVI
Mitogen-activated protein kinase kinase kinase kinase 5 (Homo sapiens), sequence (Q9Y4K4 whole entry, looked up): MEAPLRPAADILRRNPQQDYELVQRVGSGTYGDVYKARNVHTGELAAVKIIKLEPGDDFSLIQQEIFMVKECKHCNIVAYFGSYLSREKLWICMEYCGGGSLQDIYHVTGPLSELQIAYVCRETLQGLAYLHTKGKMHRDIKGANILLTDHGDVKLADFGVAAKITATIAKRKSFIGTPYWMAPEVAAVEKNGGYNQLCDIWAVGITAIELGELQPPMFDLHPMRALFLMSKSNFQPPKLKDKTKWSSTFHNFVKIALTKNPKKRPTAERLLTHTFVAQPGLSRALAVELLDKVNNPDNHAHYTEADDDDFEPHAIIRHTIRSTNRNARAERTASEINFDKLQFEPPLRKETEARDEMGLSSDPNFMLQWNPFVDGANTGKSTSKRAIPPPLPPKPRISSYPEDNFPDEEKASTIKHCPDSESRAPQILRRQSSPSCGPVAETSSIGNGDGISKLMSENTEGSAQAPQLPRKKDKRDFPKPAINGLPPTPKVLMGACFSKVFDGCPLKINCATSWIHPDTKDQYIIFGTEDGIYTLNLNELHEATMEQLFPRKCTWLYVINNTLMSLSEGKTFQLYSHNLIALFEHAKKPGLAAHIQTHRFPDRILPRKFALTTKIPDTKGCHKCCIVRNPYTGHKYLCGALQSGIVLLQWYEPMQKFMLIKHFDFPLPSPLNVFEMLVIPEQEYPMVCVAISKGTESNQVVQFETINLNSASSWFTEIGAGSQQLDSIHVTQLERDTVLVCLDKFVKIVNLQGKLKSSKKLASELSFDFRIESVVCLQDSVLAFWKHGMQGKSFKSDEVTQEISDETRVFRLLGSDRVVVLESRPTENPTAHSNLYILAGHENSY

SMILES: CC(C)CC(=O)N1CCc2nc(-c3ccc(Br)cc3)nc(N(C)Cc3ccccc3)c2C1 [THPP-1-NC]
- Ki [1]: 0.522 µM (not active)
- Ki [2]: 9.83 µM (not active)
- residual activity [3]: 100%
- residual activity [4]: 100%
- residual activity [5]: 100%
- residual activity [6]: 100%
- residual activity [7]: 60%
- residual activity [8]: 95%
- residual activity [9]: 93%
- residual activity [10]: 100%
- residual activity [11]: 100%
- residual activity [12]: 100%
- residual activity [13]: 98%
- residual activity [14]: 100%
- residual activity [15]: 100%
- residual activity [16]: 100%
- residual activity [17]: 76%
- residual activity [18]: 53%
- residual activity [19]: 70%
- residual activity [20]: 100%
- residual activity [21]: 100%
- residual activity [22]: 78%
- residual activity [23]: 84%
- residual activity [24]: 99%
- residual activity [25]: 77%
- residual activity [26]: 100%
- inhibition [27]: 12.3%

SMILES: COCCOc1nc(-c2ccc(Cl)nc2)nc2c1CN(C(=O)c1ncn3ccccc13)CC2 [THPP-1]
- inhibition [28]: 1%
- inhibition [29]: 0%
- inhibition [30]: 6%
- inhibition [31]: -8%
- inhibition [32]: 17%
- inhibition [33]: 9%
- IC50 [34]: 0.049 µM (active)
- Ki [35]: 0.044 µM
- Ki [2]: 5.9 µM (not active)
- residual activity [3]: 100%
- residual activity [4]: 100%
- residual activity [6]: 100%
- residual activity [7]: 85%
- residual activity [8]: 100%
- residual activity [9]: 91%
- residual activity [10]: 100%
- residual activity [11]: 100%
- residual activity [12]: 100%
- residual activity [13]: 100%
- residual activity [14]: 100%
- residual activity [15]: 100%
- residual activity [16]: 100%
- residual activity [17]: 79%
- residual activity [18]: 88%
- residual activity [19]: 85%
- residual activity [20]: 89%
- residual activity [21]: 100%
- residual activity [22]: 93%
- residual activity [23]: 79%
- residual activity [24]: 86%
- residual activity [25]: 91%
- residual activity [26]: 100%
- inhibition [27]: 1.51%
- inhibition [36]: 6%
- inhibition [37]: 3%
- inhibition [38]: 0%
- inhibition [39]: -6%
- inhibition [40]: 2%
- inhibition [41]: 2%
- inhibition [42]: -3%
- inhibition [43]: 28%
